Measurements: patent US20210220312A1, “Compositions And Methods For Modulating Cancer” (Tyme, Inc., priority 2020, published 2021)

System: HCT116 tumors
Assay: Antitumor effect of oral α-methyl-DL-tyrosine in athymic nude mice bearing HCT116 tumors
Format: in vivo
Method: A study was conducted to evaluate the antitumor effect of an oral formulations of α-methyl-DL-tyrosine in athymic nude mice bearing HCT116 tumors. Athymic nude mice (female, 6-7 weeks old) were purchased from Charles River Laboratories, USA. The mice were housed in a ventilated cage rack with HEAP filter system, with 12-hour light cycle at 21-24° C. (70-75° F.) and 40-60% humidity. The mice were fed with Rodent Diet 5001 (Lab Diet) consisting of: >23% protein; >4.5% fat; and >6% fiber. The mice were allowed free access to water ([…] water, 1 ppm CI). The mice were acclimated for 5 days prior to the implantation of HCT116 cells at 1 million cells per mouse in 100 ul of 1×PBS containing 50% Matrigel. At the completion of study, mice were euthanized with isoflurane followed by inhalation of carbon dioxide (CO2). The HCT116 cells (human colon carcinoma) were purchased from ATCC, and expanded to sufficient number of cells for tumor cell implantation. Solutions of α-methyl-DL-tyrosine at 16.2 mg/ml, 32.4 mg/ml, and 64.8 mg/ml in water were prepared After an acclimation period of 5 days, fifty (50) athymic nude female mice were inoculated in the thigh/flank area with 1 million of HCT116 cells suspended in 100 μl 1×PBS containing 50% Matrigel. Beginning at Day 6 post cell inoculation, the tumor volume was measured every day until the average tumor volume reached about 100 mm^3 (Tumor Volume=length×width×width×0.5). Forty-four (44) out of the fifty (50) mice within the range of 50-150 mm^3 were selected and randomly grouped into 4 groups (n=11): a control group treated with water ([…]), and 324 mg/kg (Group 4). The HCT-116 tumor bearing mice were oral gavage (PO) dosed daily at 5 ml/kg with water (Group 1), α-methyl-DL-tyrosine at 81 mg/kg (Group 2), α-methyl-DL-tyrosine at 162 mg/kg (Group 3), and α-methyl-DL-tyrosine at 324 mg/kg (Group 4) for 28 days. Clinical observations were made daily; tumor volume was measured every three to four days prior to dosing until the completion of study or when individual tumor volume exceeds 2000 mm^3.

In the case of `CC(N)(Cc1ccc(O)cc1)C(=O)O` (racemic) [α-methyl-DL-tyrosine], the tumor growth inhibition (324 mg/kg daily PO, p<0.05, t-test) was “statistically significant”, the tumor inhibition (324 mg/kg daily, Day 28) was “non-significant” and the “HCT-116 Tumor volume (group average)” value (G2, 162 mg/kg [sic] PO daily, n = 11, Day 0 post 1st dosing) was 63.5 mm^3. The “HCT-116 Tumor volume (group average)” value (G2, 162 mg/kg [sic] PO daily, n = 11, Day 4 post 1st dosing) was 112.5 mm^3, the “HCT-116 Tumor volume (group average)” value (G2, 162 mg/kg [sic] PO daily, n = 11, Day 7 post 1st dosing) was 215.3 mm^3 and the “HCT-116 Tumor volume (group average)” value (G2, 162 mg/kg [sic] PO daily, n = 11, Day 11 post 1st dosing) was 373.6 mm^3. The “HCT-116 Tumor volume (group average)” value (G2, 162 mg/kg [sic] PO daily, n = 11, Day 14 post 1st dosing) was 643.5 mm^3, the “HCT-116 Tumor volume (group average)” value (G2, 162 mg/kg [sic] PO daily, n = 11, Day 18 post 1st dosing) was 1022.3 mm^3 and the “HCT-116 Tumor volume (group average)” value (G2, 162 mg/kg [sic] PO daily, n = 11, Day 21 post 1st dosing) was 1405.9 mm^3. The “HCT-116 Tumor volume (group average)” value (G2, 162 mg/kg [sic] PO daily, n = 11, Day 25 post 1st dosing) was 1592.4 mm^3, the “HCT-116 Tumor volume (group average)” value (G2, 162 mg/kg [sic] PO daily, n = 11, Day 28 post 1st dosing) was 1718.8 mm^3 and the “HCT-116 Tumor volume (group average)” value (G3, 81 mg/kg [sic] PO daily, n = 11, Day 0 post 1st dosing) was 64.3 mm^3. For the same compound, the “HCT-116 Tumor volume (group average)” value (G3, 81 mg/kg [sic] PO daily, n = 11, Day 4 post 1st dosing) was 106.0 mm^3, the “HCT-116 Tumor volume (group average)” value (G3, 81 mg/kg [sic] PO daily, n = 11, Day 7 post 1st dosing) was 214.6 mm^3 and the “HCT-116 Tumor volume (group average)” value (G3, 81 mg/kg [sic] PO daily, n = 11, Day 11 post 1st dosing) was 391.4 mm^3. The “HCT-116 Tumor volume (group average)” value (G3, 81 mg/kg [sic] PO daily, n = 11, Day 14 post 1st dosing) was 676.6 mm^3, the “HCT-116 Tumor volume (group average)” value (G3, 81 mg/kg [sic] PO daily, n = 11, Day 18 post 1st dosing) was 1210.3 mm^3 and the “HCT-116 Tumor volume (group average)” value (G3, 81 mg/kg [sic] PO daily, n = 11, Day 21 post 1st dosing) was 1680.1 mm^3. For the same compound, the “HCT-116 Tumor volume (group average)” value (G3, 81 mg/kg [sic] PO daily, n = 11, Day 25 post 1st dosing) was 1868.0 mm^3, the “HCT-116 Tumor volume (group average)” value (G3, 81 mg/kg [sic] PO daily, n = 11, Day 28 post 1st dosing) was 1979.2 mm^3 and the “HCT-116 Tumor volume (group average)” value (G4, 324 mg/kg PO daily, n = 11, Day 0 post 1st dosing) was 64.2 mm^3. The “HCT-116 Tumor volume (group average)” value (G4, 324 mg/kg PO daily, n = 11, Day 4 post 1st dosing) was 92.9 mm^3, the “HCT-116 Tumor volume (group average)” value (G4, 324 mg/kg PO daily, n = 11, Day 7 post 1st dosing) was 172.3 mm^3 and the “HCT-116 Tumor volume (group average)” value (G4, 324 mg/kg PO daily, n = 11, Day 11 post 1st dosing) was 310.5 mm^3. For the same compound, the “HCT-116 Tumor volume (group average)” value (G4, 324 mg/kg PO daily, n = 11, Day 14 post 1st dosing) was 506.3 mm^3, the “HCT-116 Tumor volume (group average)” value (G4, 324 mg/kg PO daily, n = 11, Day 18 post 1st dosing) was 654.9 mm^3 and the “HCT-116 Tumor volume (group average)” value (G4, 324 mg/kg PO daily, n = 11, Day 21 post 1st dosing) was 890.6 mm^3. The “HCT-116 Tumor volume (group average)” value (G4, 324 mg/kg PO daily, n = 11, Day 25 post 1st dosing) was 1090.1 mm^3, the “HCT-116 Tumor volume (group average)” value (G4, 324 mg/kg PO daily, n = 11, Day 28 post 1st dosing) was 1325.7 mm^3 and the “maximum anti-tumor efficacy, reduction in tumor volume” value (observed on Day 22 (so in the source)) was 48%.
